From patent EP4603105A1, “PHARMACEUTICAL COMPOSITION CONTAINING CYCLIC COMPOUND HAVING SELECTIVE KRAS INHIBITORY EFFECT AGAINST HRAS AND NRAS” (CHUGAI SEIYAKU KABUSHIKI KAISHA, priority 2022, dated 2024)

What was measured:
[1] = tested on: human lung cancer strain NCI-H441; type: cell-based
Method in brief: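 Readout: […] after the ATP-based reagent. Compound: serial dilutions in dimethyl sulfoxide.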

HRAS wild-type protein = HRAS wild-type protein (Homo sapiens, UniProt P01112); experiment: Binding to HRAS by surface plasmon resonance (SPR), KD and KD ratio to KRAS; conditions: ratio of the KD value with respect to HRAS wild-type protein to the KD value with respect to KRAS
Chain of HRAS wild-type protein (P01112 whole entry): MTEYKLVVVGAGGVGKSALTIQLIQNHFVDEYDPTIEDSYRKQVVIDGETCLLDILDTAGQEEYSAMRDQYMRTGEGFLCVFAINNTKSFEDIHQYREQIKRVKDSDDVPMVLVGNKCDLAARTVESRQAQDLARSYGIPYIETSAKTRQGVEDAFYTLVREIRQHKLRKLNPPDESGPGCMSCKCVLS
Method in brief: (§1)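 GDP-bound biotin-Avi RAS captured at ~100–300 RU, 30°C, pH 7.4 HBS containing 10 µM GDP, 10 mM MgCl2, 1 mM DTT, 0.01% Tween 20 and 4% DMSO. KD by 1:1 fitting.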

[2] = target: GDP-bound NRAS wild-type protein (Homo sapiens, UniProt P01111); experiment: Binding to NRAS by surface plasmon resonance (SPR), KD and KD ratio to KRAS; conditions: ratio of the KD value with respect to GDP-bound NRAS wild-type protein to the KD value with respect to KRAS
Chain of GDP-bound NRAS wild-type protein (P01111 whole entry): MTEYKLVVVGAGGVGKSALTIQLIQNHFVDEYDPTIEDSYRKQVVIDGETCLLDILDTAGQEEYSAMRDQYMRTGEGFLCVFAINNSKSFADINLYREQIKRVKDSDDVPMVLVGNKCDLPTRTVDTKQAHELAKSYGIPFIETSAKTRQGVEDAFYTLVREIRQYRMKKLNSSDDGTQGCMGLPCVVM
Method in brief: as §1

Structure (SMILES) | IC50 [1] | HRAS /KRAS (HRAS wild-type protein) | NRAS /KRAS [2]
CCO[C@@H]1C[C@H]2C(=O)NC3(CC(C)(C)C3)C(=O)N(C)[C@@H](C(CC)CC)C(=O)N(C)[C@H](C(=O)N3CCCC3)CC(=O)N(C)[C@@H](C)C(=O)N[C@@H]([C@@H](C)CC)C(=O)N(C)CC(=O)N(C)[C@H]3C/C=C\CCN(C3=O)[C@@H](Cc3ccc(C)cc3)C(=O)N(C)CC(=O)N[C@@H](CCc3cc(F)c(C(F)(F)F)c(F)c3)C(=O)N2C1 [PP2145] | 0.0172 µM | A (a compound having 10 or more and less than 20 is denoted as A) | A (a compound having 10 or more and less than 20 is denoted as A)
CCC[C@H]1C(=O)N[C@@H]([C@@H](C)CC)C(=O)N(C)CC(=O)N(C)[C@H]2C/C=C\CCN(C2=O)[C@@H](Cc2ccc(C)cc2)C(=O)N(C)CC(=O)N[C@@H](CCc2ccc(C(F)(F)F)c(Cl)c2)C(=O)N2C[C@H](OCC)C[C@H]2C(=O)NC2(CC(C)(C)C2)C(=O)N(C)[C@@H](C(CC)CC)C(=O)N(C)[C@H](C(=O)N(C)C)CC(=O)N1C [PP2146] | 0.0082 µM | A (a compound having 10 or more and less than 20 is denoted as A) | A (a compound having 10 or more and less than 20 is denoted as A)
CCO[C@@H]1C[C@H]2C(=O)NC3(CC(C)(C)C3)C(=O)N(C)[C@@H](C(CC)CC)C(=O)N(C)[C@H](C(=O)N(C)C)CC(=O)N(C)[C@@H](CC)C(=O)N[C@@H]([C@@H](C)CC)C(=O)N(C)CC(=O)N(C)[C@H]3C/C=C\CCN(C3=O)[C@@H](Cc3ccc(C)cc3)C(=O)N(C)CC(=O)N[C@@H](CCc3cc(F)c(C(F)(F)F)c(F)c3)C(=O)N2C1 [PP2147] | 0.0097 µM | B (a compound having 3 or more and less than 10 is denoted as B) | A (a compound having 10 or more and less than 20 is denoted as A)
CCO[C@@H]1C[C@H]2C(=O)NC3(CC(C)(C)C3)C(=O)N(C)[C@@H](C(CC)CC)C(=O)N(C)[C@H](C(=O)N3CCCC3)CC(=O)N(C)[C@@H](CC)C(=O)N[C@@H]([C@@H](C)CC)C(=O)N(C)CC(=O)N(C)[C@H]3C/C=C\CCN(C3=O)[C@@H](Cc3ccc(C)cc3)C(=O)N(C)CC(=O)N[C@@H](CCc3cc(F)c(C(F)(F)F)c(F)c3)C(=O)N2C1 [PP2149] | 0.0177 µM | A (a compound having 10 or more and less than 20 is denoted as A) | A (a compound having 10 or more and less than 20 is denoted as A)
CCO[C@@H]1C[C@H]2C(=O)NC3(CC(C)(C)C3)C(=O)N(C)[C@@H](C(CC)CC)C(=O)N(C)[C@H](C(=O)N(C)C)CC(=O)N(C)[C@@H](C)C(=O)N[C@@H]([C@@H](C)CC)C(=O)N(C)CC(=O)N(C)[C@H]3C/C=C\CCN(C3=O)[C@@H](Cc3ccc(C)cc3)C(=O)N(C)CC(=O)N[C@@H](CCc3ccc(C(F)(F)F)c(Cl)c3)C(=O)N2C1 [PP2150] | 0.058 µM | A (a compound having 10 or more and less than 20 is denoted as A) | AA (a compound having 20 or more is denoted as AA)
CCO[C@@H]1C[C@H]2C(=O)NC3(CC(C)(C)C3)C(=O)N(C)[C@@H](C(CC)CC)C(=O)N(C)[C@H](C(=O)N(C)C)CC(=O)N(C)[C@@H](CC3CCC3)C(=O)N[C@@H]([C@@H](C)CC)C(=O)N(C)CC(=O)N(C)[C@H]3C/C=C\CCN(C3=O)[C@@H](Cc3ccc(C)cc3)C(=O)N(C)CC(=O)N[C@@H](CCc3cc(F)c(C(F)(F)F)c(F)c3)C(=O)N2C1 [PP2151] | 0.0233 µM | A (a compound having 10 or more and less than 20 is denoted as A) | A (a compound having 10 or more and less than 20 is denoted as A)
CCO[C@@H]1C[C@H]2C(=O)NC3(CC(C)(C)C3)C(=O)N(C)[C@@H](C(CC)CC)C(=O)N(C)[C@H](C(=O)N3CCCC3)CC(=O)N(C)[C@@H](C)C(=O)N[C@@H]([C@@H](C)CC)C(=O)N(C)CC(=O)N(C)[C@H]3C/C=C\CCN(C3=O)[C@@H](Cc3ccc(C)cc3)C(=O)N(C)CC(=O)N[C@@H](CCc3ccc(C(F)(F)F)c(Cl)c3)C(=O)N2C1 [PP2152] | 0.0294 µM | A (a compound having 10 or more and less than 20 is denoted as A) | AA (a compound having 20 or more is denoted as AA)
CCO[C@@H]1C[C@H]2C(=O)NC3(CC(C)(C)C3)C(=O)N(C)[C@@H](C(CC)CC)C(=O)N(C)[C@H](C(=O)N(C)C)CC(=O)N(C)[C@@H](CC)C(=O)N[C@@H]([C@@H](C)CC)C(=O)N(C)CC(=O)N(C)[C@H]3C/C=C\CCN(C3=O)[C@@H](Cc3ccc(C)cc3)C(=O)N(C)CC(=O)N[C@@H](CCc3ccc(C(F)(F)F)c(Cl)c3)C(=O)N2C1 [PP2154] | 0.0177 µM | A (a compound having 10 or more and less than 20 is denoted as A) | A (a compound having 10 or more and less than 20 is denoted as A)
CCO[C@@H]1C[C@H]2C(=O)NC3(CC(C)(C)C3)C(=O)N(C)[C@@H](C(CC)CC)C(=O)N(C)[C@H](C(=O)N(C)C)CC(=O)N(C)[C@@H](CC3CC3)C(=O)N[C@@H]([C@@H](C)CC)C(=O)N(C)CC(=O)N(C)[C@H]3C/C=C\CCN(C3=O)[C@@H](Cc3ccc(C(F)(F)F)cc3)C(=O)N(C)CC(=O)N[C@@H](CCc3ccc(C(F)(F)F)c(OC)c3)C(=O)N2C1 [PP2155] | 0.0107 µM | B (a compound having 3 or more and less than 10 is denoted as B) | A (a compound having 10 or more and less than 20 is denoted as A)
CCO[C@@H]1C[C@H]2C(=O)NC3(CC(C)(C)C3)C(=O)N(C)[C@@H](C(CC)CC)C(=O)N(C)[C@H](C(=O)N(C)C)CC(=O)N(C)[C@@H](CC3CCC3)C(=O)N[C@@H]([C@@H](C)CC)C(=O)N(C)CC(=O)N(C)[C@H]3C/C=C\CCN(C3=O)[C@@H](Cc3ccc(C)cc3)C(=O)N(C)CC(=O)N[C@@H](CCc3ccc(C(F)(F)F)c(Cl)c3)C(=O)N2C1 [PP2156] | 0.0206 µM | A (a compound having 10 or more and less than 20 is denoted as A) | AA (a compound having 20 or more is denoted as AA)
CCO[C@@H]1C[C@H]2C(=O)NC3(CC(C)(C)C3)C(=O)N(C)[C@@H](C(CC)CC)C(=O)N(C)[C@H](C(=O)N(C)C)CC(=O)N(C)[C@@H](COC)C(=O)N[C@@H]([C@@H](C)CC)C(=O)N(C)CC(=O)N(C)[C@H]3C/C=C\CCN(C3=O)[C@@H](Cc3ccc(C(F)(F)F)cc3)C(=O)N(C)CC(=O)N[C@@H](CCc3ccc(C(F)(F)F)c(OC)c3)C(=O)N2C1 [PP2157] | 0.0059 µM | A (a compound having 10 or more and less than 20 is denoted as A) | A (a compound having 10 or more and less than 20 is denoted as A)
CCO[C@@H]1C[C@H]2C(=O)NC3(CC(C)(C)C3)C(=O)N(C)[C@@H](C(CC)CC)C(=O)N(C)[C@H](C(=O)N3CCCC3)CC(=O)N(C)[C@@H](COC)C(=O)N[C@@H]([C@@H](C)CC)C(=O)N(C)CC(=O)N(C)[C@H]3C/C=C\CCN(C3=O)[C@@H](Cc3ccc(C(F)(F)F)cc3)C(=O)N(C)CC(=O)N[C@@H](CCc3ccc(C(F)(F)F)c(OC)c3)C(=O)N2C1 [PP2159] | 0.0195 µM | A (a compound having 10 or more and less than 20 is denoted as A) | AA (a compound having 20 or more is denoted as AA)
CCC[C@H]1C(=O)N[C@@H]([C@@H](C)CC)C(=O)N(C)CC(=O)N(C)[C@H]2C/C=C\CCN(C2=O)[C@@H](Cc2ccc(C(F)(F)F)cc2)C(=O)N(C)CC(=O)N[C@@H](CCc2ccc(C(F)(F)F)c(OC)c2)C(=O)N2C[C@H](OCC)C[C@H]2C(=O)NC2(CC(C)(C)C2)C(=O)N(C)[C@@H](C(CC)CC)C(=O)N(C)[C@H](C(=O)N(C)C)CC(=O)N1C [PP2160] | 0.0054 µM | A (a compound having 10 or more and less than 20 is denoted as A) | A (a compound having 10 or more and less than 20 is denoted as A)
CCO[C@@H]1C[C@H]2C(=O)NC3(CC(C)(C)C3)C(=O)N(C)[C@@H](C(CC)CC)C(=O)N(C)[C@H](C(=O)N(C)C)CC(=O)N(C)[C@@H](CC(C)C)C(=O)N[C@@H]([C@@H](C)CC)C(=O)N(C)CC(=O)N(C)[C@H]3C/C=C\CCN(C3=O)[C@@H](Cc3ccc(C(F)(F)F)cc3)C(=O)N(C)CC(=O)N[C@@H](CCc3ccc(C(F)(F)F)c(OC)c3)C(=O)N2C1 [PP2161] | 0.0124 µM | A (a compound having 10 or more and less than 20 is denoted as A) | AA (a compound having 20 or more is denoted as AA)
CCO[C@@H]1C[C@H]2C(=O)NC3(CC(C)(C)C3)C(=O)N(C)[C@@H](C(CC)CC)C(=O)N(C)[C@H](C(=O)N3CCCC3)CC(=O)N(C)[C@@H](C)C(=O)N[C@@H]([C@@H](C)CC)C(=O)N(C)CC(=O)N(C)[C@H]3C/C=C\CCN(C3=O)[C@@H](Cc3ccc(C(F)(F)F)cc3)C(=O)N(C)CC(=O)N[C@@H](CCc3ccc(C(F)(F)F)c(OC)c3)C(=O)N2C1 [PP2163] | 0.0182 µM | A (a compound having 10 or more and less than 20 is denoted as A) | A (a compound having 10 or more and less than 20 is denoted as A)
